In patent US11059795B2, “Androgen receptor modulators and methods for their use” (ESSA Pharma, Inc., priority 2018, dated 2021):

Tests used:
[1] = Microsomal stability assay, human liver microsomes; type: in vitro ADME; settings: pH 7.4, 1 μM compound, 0.5 mg/mL protein, 37° C., read-out: HLM +/− NADPH: Clint (μL/min/mg protein)
Method in brief: (§1)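 Compound at 1 μM was incubated at 37° C with 0.5 mg/mL liver microsomes and 1 mM NADPH and/or 1 mM UDPGA (with alamethicin) in 100 mM potassium phosphate pH 7.4, 3 mM MgCl2. Samples were taken at 0, 15, 30 and 60 min and measured by LC/MS/MS. t½ came from compound loss relative to 0 min, and Clint was scaled with 45 mg microsomal protein/g liver.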

[2] = Microsomal stability assay, mouse liver microsomes; type: in vitro ADME; settings: mouse, liver microsomes, pH 7.4, mouse liver microsomes, 1 μM compound, 0.5 mg/mL protein, 37° C.; read-out: MLM +30/− NADPH: Clint (μL/min/mg protein)
Method in brief: as §1

androgen receptor (AR) = molecular target: T1, androgen receptor (AR) (Homo sapiens, UniProt P10275, T878A); test: Androgen-induced PSA (6.1 kb)-luciferase reporter assay in LNCaP cells; type: cell-based; settings: LNCaP cells transfected with PSA (6.1 kb)-luciferase reporter, R1881 1 nM, 24 h; read-out: PSA-Luc IC50 Range
T1 construct: LNCaP cells were transiently transfected with the PSA (6.1 kb)-luciferase reporter for 24 h; endogenous in cells; host or cells: LNCaP
T1 sequence (P10275 1-920 T878A): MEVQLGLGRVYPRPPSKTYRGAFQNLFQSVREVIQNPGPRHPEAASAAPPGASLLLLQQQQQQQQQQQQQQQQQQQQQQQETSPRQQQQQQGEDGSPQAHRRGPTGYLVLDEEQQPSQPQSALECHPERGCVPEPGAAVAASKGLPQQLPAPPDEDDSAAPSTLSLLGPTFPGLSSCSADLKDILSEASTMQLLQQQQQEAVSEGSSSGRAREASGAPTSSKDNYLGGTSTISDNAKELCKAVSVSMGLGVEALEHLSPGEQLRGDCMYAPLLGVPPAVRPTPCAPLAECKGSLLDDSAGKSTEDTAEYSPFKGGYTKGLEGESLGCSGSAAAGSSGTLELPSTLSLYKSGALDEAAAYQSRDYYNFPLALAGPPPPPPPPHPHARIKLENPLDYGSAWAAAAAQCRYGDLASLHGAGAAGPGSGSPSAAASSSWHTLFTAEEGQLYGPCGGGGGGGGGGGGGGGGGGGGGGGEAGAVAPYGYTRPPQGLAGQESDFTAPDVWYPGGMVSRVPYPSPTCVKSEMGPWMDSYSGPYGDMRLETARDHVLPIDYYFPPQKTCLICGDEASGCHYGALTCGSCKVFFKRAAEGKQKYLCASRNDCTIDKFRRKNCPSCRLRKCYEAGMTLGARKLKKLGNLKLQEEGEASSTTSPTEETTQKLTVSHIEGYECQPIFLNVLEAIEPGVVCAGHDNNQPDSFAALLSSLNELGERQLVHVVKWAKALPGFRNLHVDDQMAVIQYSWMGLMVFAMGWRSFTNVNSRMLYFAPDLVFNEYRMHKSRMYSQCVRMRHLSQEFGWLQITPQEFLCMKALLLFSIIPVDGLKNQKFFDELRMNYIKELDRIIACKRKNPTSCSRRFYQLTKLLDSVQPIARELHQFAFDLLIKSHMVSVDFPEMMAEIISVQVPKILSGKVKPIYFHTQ
Method in brief: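 Read-out is firefly luminescence (10 s) in LNCaP lysates, normalized to protein, from an ARE-containing PSA (6.1 kb)-luciferase reporter driven by androgen.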

[3] = Hepatocyte stability assay, mouse hepatocytes; type: in vitro ADME; settings: mouse, cryopreserved hepatocytes, 1 μM compound, 0.5 million cells/mL, 37° C., read-out: MH +/− NADPH: Clint (μL/min/million cells)
Description: The […] of in vitro intrinsic clearance (Clint) for drug candidates in the early discovery stage is common practice in the pharmaceutical industry. The Clint values of drug candidates can help to confirm whether metabolism is the main clearance pathway when it is compared with the total body clearance in vivo. Hepatocytes are among the routinely used in vitro systems for measuring clearance. Hepatocytes have been reported to retain most of the phase I and phase II metabolic activities, and therefore, it is a useful tool to estimate the intrinsic clearance for potential drug candidates.
Metabolic stability of testing compound were be evaluated using human and mouse hepatocytes and can also be use rat, mouse, or other animal hepatocytes to predict intrinsic clearance. Cryopreserved hepatocytes were removed from the liquid nitrogen tank and thawed in a 37° C. water bath. As soon as the cells pulled away from the vial wall, they were decanted into 48 ml of warm HT medium. Cells were centrifuged for four minutes at 420 rpm (50 g). After removing the supernatant, pellet was re-suspended in warm DMEM medium. Cell density was counted by a hemacytometer.
The assay was carried out in 96-well microtiter plates. Compounds were incubated for 0, 60, 120, and 180 minutes at 37° C. with hepatocytes. Reaction mixtures (50 μL) contained a final concentration of 1 μM test compound, 0.5 million cells/mL hepatocytes in the DMEM medium. At each of the time points (for example, 0, 1, 2, and 3 hours), 200 μL of quench solution (100% acetonitrile with 0.1% formic acid) with internal standard was transferred to each well. Midazolam was included as a positive control to verify assay performance. Plates were sealed and centrifuged at 4° C. for 15 minutes at 4000 rpm. The supernatant is transferred to fresh plates for LC/MS/MS analysis.
Summarized conditions (customizable): [Compound]=[…], Positive control: midazolam and/or naloxone, [Hepatocyte]=0.5 million cells/Ml, time=0, 60, 120, and 180 min, t=37° C.
All samples were analyzed on LC/MS/MS using an AB Sciex API 4000 instrument, coupled to a Shimadzu LC-20AD LC Pump system. Analytical samples were separated using a Waters Atlantis T3 dC18 reverse phase HPLC column (20 mm×2.1 mm) at a flow rate of 0.5 mL/min. The mobile phase consisted of 0.1% formic acid in water (solvent A) and 0.1% formic acid in 100% acetonitrile (solvent B).
The extent of metabolism was calculated as the disappearance of the test compound, compared to the 0-min control reaction incubations. Initial rates were calculated for the compound concentration and used to determine t½ values and subsequently, the intrinsic clearance, Clint. Clint=(0.693)(1/t½(min))(mL incubation/million cells)

Row | SMILES | microsomal CLint at 1 μM [1] [µL/min/mg] | microsomal CLint at 1 μM [2] [µL/min/mg] | IC50 (androgen receptor (AR)) [nM] | hepatocyte CLint at 1 μM [3] [µL/min/1e6 cells]
1 | CC(C)(c1ccc(OCc2ocnc2S(C)(=O)=O)cc1)c1cc(Cl)c(OCC(O)CCl)c(Cl)c1 (stereo not drawn) [Compound A117] | 12 to 48 | 12 to 48 | 500 to 2000 | ≥ 18
2 | CSc1nc(COc2ccc(C(C)(C)c3cc(Cl)c(OCCCl)c(C#N)c3)cc2)c(C)o1 [Compound A118] | ≥ 48 | ≥ 48 | 500 to 2000 | 4 to 18
3 | CC(C)(c1ccc(CNc2ccnc(NS(C)(=O)=O)n2)cc1)c1cc(Cl)c(OCCCl)c(C#N)c1 [Compound A120] | ≥ 48 | < 12 | > 2000 | 4 to 18
4 | CC(C)(c1ccc(CCc2ccnc(N)n2)cc1)c1cc(Cl)c(OCCCl)c(C#N)c1 [Compound A121] | 12 to 48 | 12 to 48 | 500 to 2000 | 4 to 18
5 | CC(C)(c1ccc(OCc2ccnc(S(C)(=O)=O)n2)cc1)c1cc(Cl)c(OCCCl)c(C#N)c1 [Compound A124] | < 12 | ≥ 48 | > 2000 | ≥ 18
6 | CC(C)(c1ccc(OCc2coc(NS(C)(=O)=O)n2)cc1)c1cc(Cl)c(OCCCl)c(C#N)c1 [Compound A130] | 12 to 48 | < 12 | 500 to 2000 | < 4
7 | CC(C)S(=O)(=O)Nc1nc(COc2ccc(C(C)(C)c3cc(Cl)c(OCCCl)c(C#N)c3)cc2)co1 [Compound A132] | < 12 | < 12 | 500 to 2000 | < 4
8 | CC(C)(c1ccc(OCc2csc(NS(C)(=O)=O)n2)cc1)c1cc(Cl)c(OCCCl)c(C#N)c1 [Compound A134, N-(4-((4-(2-(3-chloro-4-(2-chloroethoxy)-5-cyanophenyl)propan-2-yl)phenoxy)methyl)thiazol-2-yl)methanesulfonamide] | 12 to 48 | < 12 | 500 to 2000 | < 4

Next, values leading:

Row | microsomal CLint at 1 μM [1] [µL/min/mg] | microsomal CLint at 1 μM [2] [µL/min/mg] | IC50 (androgen receptor (AR)) [nM] | hepatocyte CLint at 1 μM [3] [µL/min/1e6 cells] | SMILES
9 | < 12 | < 12 | < 500 | ≥ 18 | CC(C)(c1ccc(OCc2cnc(Cl)o2)cc1)c1cc(Cl)c(OCCCl)c(C#N)c1 [Compound A115]
10 | 12 to 48 | 12 to 48 | 500 to 2000 | 4 to 18 | CC(Oc1ccc(C(C)(C)c2cc(Cl)c(OCCCl)c(Cl)c2)cc1)c1[nH]cnc1S(C)(=O)=O (stereo not drawn) [Compound A116]
11 | ≥ 48 | ≥ 48 | < 500 | 4 to 18 | CSc1nc(C)c(COc2ccc(C(C)(C)c3cc(Cl)c(OCCCl)c(C#N)c3)cc2)o1 [Compound A119]
12 | < 12 | ≥ 48 | < 500 | 4 to 18 | Cc1nc(NS(C)(=O)=O)nc(COc2ccc(C(C)(C)c3cc(Cl)c(OCCCl)c(C#N)c3)cc2)c1C [Compound A123]
13 | < 12 | ≥ 48 | < 500 | ≥ 18 | CC(C)S(=O)(=O)c1nc(COc2ccc(C(C)(C)c3cc(Cl)c(OCCCl)c(C#N)c3)cc2)co1 [Compound A125]
14 | ≥ 48 | ≥ 48 | < 500 | ≥ 18 | CC(C)(c1ccc(OCc2cnc(NS(C)(=O)=O)o2)cc1)c1cc(Cl)c(OCCCl)c(C#N)c1 [Compound A133]
15 | 12 to 48 | 12 to 48 | < 500 | ≥ 18 | CC(C)(c1ccc(OCc2ncc(NS(C)(=O)=O)s2)cc1)c1cc(Cl)c(OCCCl)c(C#N)c1 [Compound A135]
